Reference: patent US10047118B2, “C17-aryl substituted betulinic acid analogs” (priority 2014, dated 2018)

Tested on: recombinant NL4-3 virus (Renilla luciferase in nef, Gag P373S; NLRluc) in MT-2 cells
Test: HIV cell culture assay (luciferase reporter virus in MT-2 cells)
Assay type: cell-based
Conditions: NL43, read-out: WT EC50
Description: Step 2: To a solution of methyl 4-((1R,3aS,5aR,5bR,7aR,11aS,11bR,13aR,13bR)-5a,5b,8,8,11a-pentamethyl-3a-(1-methyl-1H-1,2,4-triazol-5-yl)-1-(prop-1-en-2-yl)-2,3,3a,4,5,5a,5b,6,7,7a,8,11,11a,11b,12,13,13a,13b-octadecahydro-1H-cyclopenta[a]chrysen-9-yl)benzoate (12.7 mg, 0.021 mmol) in THF (1 mL) and MeOH (0.25 mL) was added a solution of 1N lithium hydroxide (0.073 mL, 0.073 mmol). The reaction was stirred at 75° C. After 1 h, the reaction was cooled to rt and purified by reverse phase prep-HPLC using HPLC method 4 and dried in vacuo to give 4-((1R,3aS,5aR,5bR,7aR,11aS,11bR,13aR,13bR)-5a,5b,8,8,11a-pentamethyl-3a-(1-methyl-1H-1,2,4-triazol-5-yl)-1-(prop-1-en-2-yl)-2,3,3a,4,5,5a,5b,6,7,7a,8,11,11a,11b,12,13,13a,13b-octadecahydro-1H-cyclopenta[a]chrysen-9-yl)benzoic acid (9.1 mg, 0.015 mmol, 70.4% yield) as a white solid. LC/MS: m/e 596.3 (M+H)^+, 5.33 min (method 3). ^1H NMR (400 MHz, 1:1 CDCl3:METHANOL-d4) δ 7.89 (d, J=8.3 Hz, 2H), 7.78 (s, 1H), 7.17 (d, J=8.6 Hz, 2H), 5.30-5.22 (m, 1H), 4.77 (d, J=1.7 Hz, 1H), 3.93 (s, 3H), 3.23-3.05 (m, 2H), 2.33 (d, J=13.7 Hz, 1H), 2.11 (dd, J=17.2, 6.2 Hz, 1H), 2.04-1.96 (m, 1H), 1.93-1.80 (m, 2H), 1.72 (s, 3H), 1.68 (d, J=16.4 Hz, 1H), 1.63-1.58 (m, 1H), 1.55-1.30 (m, 10H), 1.28-1.19 (m, 2H), 1.18-1.08 (m, 2H), 1.04 (s, 3H), 0.97 (s, 3H), 0.90 (s, 6H), 0.82 (s, 3H). HIV cell culture assay—MT-2 cells and 293T cells were obtained from the NIH AIDS Research and Reference Reagent Program. MT-2 cells were propagated in RPMI 1640 media supplemented with 10% heat inactivated fetal bovine serum, […]. The 293T cells were propagated in DMEM media supplemented with 10% heat inactivated fetal bovine serum (FBS), 100 units/mL penicillin G and 100 μg/mL streptomycin. The proviral DNA clone of NL4-3 was obtained from the NIH AIDS Research and Reference Reagent Program. A recombinant NL4-3 virus, in which a section of the nef gene from NL4-3 was replaced with the Renilla luciferase gene, was used as a reference virus. In addition, residue Gag P373 was converted to P373S. Briefly, the recombinant virus was prepared by transfection of the altered proviral clone of NL4-3. Transfections were performed in 293T cells using LipofectAMINE PLUS from Invitrogen (Carlsbad, Calif.), according to manufacturer's instruction. The virus was titered in MT-2 cells using luciferase enzyme activity as a marker. Luciferase was quantitated using the Dual Luciferase kit from Promega (Madison, Wis.), with modifications to the manufacturer's protocol. The diluted Passive Lysis solution was pre-mixed with the re-suspended Luciferase Assay Reagent and the re-suspended Stop & Glo Substrate (2:1:1 ratio). Fifty (50) μL of the mixture was added to each aspirated well on assay plates and luciferase activity was measured immediately on a Wallac TriLux (Perkin-Elmer). Antiviral activities of inhibitors toward the recombinant virus were quantified by measuring luciferase activity in cells infected for 4-5 days with NLRluc recombinants in the presence serial dilutions of the inhibitor. Biological Data Key for EC50

Row | SMILES | EC50
1 | C=C(C)[C@@H]1CC[C@]2(C#Cc3ccccc3C(=O)O)CC[C@]3(C)[C@H](CC[C@@H]4[C@@]5(C)CC=C(c6ccc(C(=O)O)cc6)C(C)(C)[C@@H]5CC[C@]43C)[C@@H]12 [Example 1, 2-(((1R,3aS,5aR,5bR,7aR,11aS,11bR,13aR,13bR)-9-(4-carboxyphenyl)-5a,5b,8,8,11a-pentamethyl-1-(prop-1-en-2-yl)-2,3,3a,4,5,5a,5b,6,7,7a,8,11,11a,11b,12,13,13a,13b-octadecahydro-1H-cyclopenta[a]chrysen-3a-yl)ethynyl)benzoic acid] | 80 nM
2 | C=C(C)[C@@H]1CC[C@]2(C#Cc3ccsc3-c3nnn[nH]3)CC[C@]3(C)[C@H](CC[C@@H]4[C@@]5(C)CC=C(c6ccc(C(=O)O)cc6)C(C)(C)[C@@H]5CC[C@]43C)[C@@H]12 [Example 2, 4-((1R,3aS,5aR,5bR,7aR,11aS,11bR,13 aR,13bR)-3a-((2-(1H-tetrazol-5-yl)thiophen-3-yl)ethynyl)-5a,5b,8,8,11a-pentamethyl-1-(prop-1-en-2-yl)-2,3,3a,4,5,5a,5b,6,7,7a,8,11,11a,11b,12,13,13a,13b-octadecahydro-1H-cyclopenta[a]chrysen-9-yl)benzoic acid] | > 100 nM
3 | C=C(C)[C@@H]1CC[C@]2(c3nnco3)CC[C@]3(C)[C@H](CC[C@@H]4[C@@]5(C)CC=C(c6ccc(C(=O)O)cc6)C(C)(C)[C@@H]5CC[C@]43C)[C@@H]12 [Example 3, 4-((1R,3aS,5aR,5bR,7aR,11aS,11bR,13aR,13bR)-5a,5b,8,8,11a-pentamethyl-3a-(1,3,4-oxadiazol-2-yl)-1-(prop-1-en-2-yl)-2,3,3a,4,5,5a,5b,6,7,7a,8,11,11a,11b,12,13,13a,13b-octadecahydro-1H-cyclopenta[a]chrysen-9-yl)benzoic acid] | < 100 nM
4 | C=C(C)[C@@H]1CC[C@]2(c3nnc(CN(C)C)o3)CC[C@]3(C)[C@H](CC[C@@H]4[C@@]5(C)CC=C(c6ccc(C(=O)O)cc6)C(C)(C)[C@@H]5CC[C@]43C)[C@@H]12 [Example 4, 4-((1R,3aS,5aR,5bR,7aR,11aS,11bR,13 aR,13bR)-3a-(5-((dimethylamino)methyl)-1,3,4-oxadiazol-2-yl)-5a,5b,8,8,11a-pentamethyl-1-(prop-1-en-2-yl)-2,3,3a,4,5,5a,5b,6,7,7a,8,11,11a,11b,12,13,13a,13b-octadecahydro-1H-cyclopenta[a]chrysen-9-yl)benzoic acid] | < 100 nM
5 | C=C(C)[C@@H]1CC[C@]2(c3nc[nH]n3)CC[C@]3(C)[C@H](CC[C@@H]4[C@@]5(C)CC=C(c6ccc(C(=O)O)cc6)C(C)(C)[C@@H]5CC[C@]43C)[C@@H]12 [Example 5, 4-((1R,3aS,5aR,5bR,7aR,11aS,11bR,13aR,13bR)-5a,5b,8,8,11a-pentamethyl-1-(prop-1-en-2-yl)-3a-(1H-1,2,4-triazol-3-yl)-2,3,3a,4,5,5a,5b,6,7,7a,8,11,11a,11b,12,13,13a,13b-octadecahydro-1H-cyclopenta[a]chrysen-9-yl)benzoic acid] | < 100 nM
6 | C=C(C)[C@@H]1CC[C@]2(c3ncn(CCN4CCS(=O)(=O)CC4)n3)CC[C@]3(C)[C@H](CC[C@@H]4[C@@]5(C)CC=C(c6ccc(C(=O)O)cc6)C(C)(C)[C@@H]5CC[C@]43C)[C@@H]12 [Example 6, 4-((1R,3aS,5aR,5bR,7aR,11aS,11bR,13aR,13bR)-3a-(1-(2-(1,1-dioxidothiomorpholino)ethyl)-1H-1,2,4-triazol-3-yl)-5a,5b,8,8,11a-pentamethyl-1-(prop-1-en-2-yl)-2,3,3a,4,5,5a,5b,6,7,7a,8,11,11a,11b,12,13,13a,13b-octadecahydro-1H-cyclopenta[a]chrysen-9-yl)benzoic acid] | < 100 nM
7 | C=C(C)[C@@H]1CC[C@]2(c3ncnn3C)CC[C@]3(C)[C@H](CC[C@@H]4[C@@]5(C)CC=C(c6ccc(C(=O)O)cc6)C(C)(C)[C@@H]5CC[C@]43C)[C@@H]12 [Example 7, 4-((1R,3aS,5aR,5bR,7aR,11aS,11bR,13aR,13bR)-5a,5b,8,8,11a-pentamethyl-3a-(1-methyl-1H-1,2,4-triazol-5-yl)-1-(prop-1-en-2-yl)-2,3,3a,4,5,5a,5b,6,7,7a,8,11,11a,11b,12,13,13a,13b-octadecahydro-1H-cyclopenta[a]chrysen-9-yl)benzoic acid] | < 100 nM
